Assay [1] concerns SKMEL3 melanoma cells (B-Raf V600E). Description: SKMEL3 cell growth inhibition (ATPlite). It is filed as cell-based. Particulars: Homo sapiens, SK-MEL3, 72 h; SKMEL3, 3 days incubation. As to the method:
(§1) Compounds are assessed in a variety of cell based assays. For example human cell lines with B-Raf V600E mutation (A375 melanoma, SKMEL3 melanoma, and COL0205 colon adenocarcinoma), as well as tumorigenic cell lines with wild-type B-RAF (SW620 colon adenocarcinoma) or with Ras mutations (SKMEL2 melanoma and IPC298 melanoma). Similar assays may be used to assess additional tumorigenic cell lines with Ras mutations, including, but not limited to, M202, M207, M243, M244, M296, S117, HCT116, HCT15, DLD1, MiaPaCa, A549, NCI-H23, NCI-H460, HOP62, MDA-MB231, Hs-578T, HL60, MOLT-4, and CCRF-CEM.
(§2) On day 1, cells are counted, then centrifuged in a conical tube for 5 minutes at 1000 rpm. The supernatant is removed and cells are re-suspended as follows: • SW620 (ATCC catalog #CCL-27): resuspend in Leibovitz's L-15 medium, 2 mM L-glutamine, 10% fetal bovine serum to 6×10^4 cells/mL. • A375 (ATCC catalog #CRL-1619): resuspend in Dulbecco's modified Eagle's medium, 4 mM L-glutamine, 4.5 g/L D-glucose, 10% fetal bovine serum to 6×10^4 cells/mL. • COL0205 (ATCC catalog #CCL-222): resuspend in RPMI 1640, 2 mM L-glutamine, 1.5 g/L sodium bicarbonate, 4.5 g/L D-glucose, 10 mM HEPES, 1.0 mM sodium pyruvate, 10% fetal bovine serum to 6×10^4 cells/mL. • SKMEL2 (ATCC catalog #HTB-68): resuspend in Minimum Eagle essential medium, 2 mM L-glutamine, 1.5 g/L sodium bicarbonate, 0.1 mM non-essential amino acids, 1.0 mM sodium pyruvate, 10% fetal bovine serum to 6×10^4 cells/mL. • SKMEL3 (ATCC catalog #HTB-69): resuspend in McCoy's 5A medium, 1.5 mM L-glutamine, 15% fetal bovine serum to 6×10^4 cells/mL. • IPC298 (DSMZ catalog #ACC 251): resuspend in RPMI 1640, 2 mM L-glutamine, 10% fetal bovine serum to 6×10^4 cells/mL.
(§3) The cells are plated, 50 μL in each well of a 96-well dish (Corning 3610) and incubated at 37° C. in 5% CO2 overnight, cells plated to a final concentration of cells as follows:
SKMEL3: 3,000 cells per well.
On day 2, compound at a maximum concentration of 5 mM is serially diluted 1:3 for a total of 8 point titration with DMSO as a control. A 1 μL aliquot of each dilution point and control is added to 249 μL growth media and 50 μL is added to a well containing cells, providing 10 μM compound at the maximum concentration point. The cells are incubated for 3 days at 37° C. in 5% CO2.
(§4) On day 5, ATPlite 1 step Luminescence Assay System (Perkin Elmer #6016739) is brought to room temperature along with the cell cultures. ATPlite is added 25 μL to each well, shake for 2 minutes, and the cells are incubated at room temperature for 10 minutes, then luminescence is read on Safire reader. The measured luminescence correlates directly with cell number, such that the reading as a function of compound concentration is used to determine the IC50 value.
It is understood that the results of these assays may vary as assay conditions are varied. Inhibition levels determined under the conditions described herein represent a relative activity for the compounds tested under the specific conditions employed. The cell based assays are likely to show variability due to the complexity of the system and the sensitivity thereof to any changes in the assay conditions. […] Results for compounds that are tested and show substantially no inhibition below the highest tested concentration are represented as “-” in the tables below. In some instances, the compounds were not tested in all of the assays, or assay results were not valid, as indicated by NA in the tables below.
In general terms: Cellular ATP, detected with luciferase, serves as a proxy for viable cell number.

Assay [2] deals with IPC298 melanoma cells (Ras mutation). Kind of assay: IPC298 cell growth inhibition (ATPlite). The note with it: Homo sapiens, IPC-298, 72 h; IPC298, 3 days incubation. The class given is cell-based. As to the method: as §1, §2, §3
On day 2, compound at a maximum concentration of 5 mM is serially diluted 1:3 for a total of 8 point titration with DMSO as a control. […]
as §4
It is understood that the results of these assays may vary as assay conditions are varied. Inhibition levels determined under the conditions described herein represent a relative activity for the compounds tested under the specific conditions employed. […]

Molecules are shown by their SMILES.

By IC50 is commonly meant the concentration that inhibits the measured activity by half. Take `COc1ncc(-c2cnc3[nH]cc(C(=O)c4c(F)ccc(NS(=O)(=O)c5ccccc5F)c4F)c3c2)cn1` [P-2041, N-{2,4-Difluoro-3-[5-(2-methoxy-pyrimidin-5-yl)-1H-pyrrolo[2,3-b]pyridine-3-carbonyl]-phenyl}-2-fluoro-benzenesulfonamide]: the IC50 in assay [1] and in assay [2] was under 1 µM each time.
Take `COc1ncc(-c2cnc3[nH]cc(C(=O)c4c(F)ccc(NS(=O)(=O)c5cc(F)ccc5F)c4F)c3c2)cn1` [P-2042, N-{2,4-Difluoro-3-[5-(2-methoxy-pyrimidin-5-yl)-1H-pyrrolo[2,3-b]pyridine-3-carbonyl]-phenyl}-2,5-difluoro-benzenesulfonamide]: the IC50 in assay [1] and in assay [2] was under 1 µM throughout.
As to `COc1ncc(-c2cnc3[nH]cc(C(=O)c4c(F)ccc(NS(=O)(=O)c5cccc(F)c5)c4F)c3c2)cn1` [P-2045, N-{2,4-Difluoro-3-[5-(2-methoxy-pyrimidin-5-yl)-1H-pyrrolo[2,3-b]pyridine-3-carbonyl]-phenyl}-3-fluoro-benzenesulfonamide], in assay [1], the IC50 was under 5 µM.
Compound `CCCS(=O)(=O)Nc1ccc(F)c(C(=O)c2c[nH]c3ncc(-c4cnc(SC)nc4)cc23)c1F` [P-2189, Propane-1-sulfonic acid {2,4-difluoro-3-[5-(2-methylsulfanyl-pyrimidin-5-yl)-1H-pyrrolo[2,3-b]pyridine-3-carbonyl]-phenyl}-amide] gave an IC50 in assay [2] of under 10 µM.
For `CCCS(=O)(=O)Nc1ccc(F)c(C(=O)c2c[nH]c3ncc(-c4cnc(N(C)C)nc4)cc23)c1F` [P-2196, Propane-1-sulfonic acid {3-[5-(2-dimethylamino-pyrimidin-5-yl)-1H-pyrrolo[2,3-b]pyridine-3-carbonyl]-2,4-difluoro-phenyl}-amide], the IC50 in assay [1] was under 1 µM; in assay [2] it was under 10 µM.
In turn, `CCCS(=O)(=O)Nc1ccc(F)c(C(=O)c2c[nH]c3ncc(-c4cnc(N5CCCC5)nc4)cc23)c1F` [P-2219, Propane-1-sulfonic acid {2,4-difluoro-3-[5-(2-pyrrolidin-1-yl-pyrimidin-5-yl)-1H-pyrrolo[2,3-b]pyridine-3-carbonyl]-phenyl}-amide] had an IC50 in assay [1] of under 5 µM.

The values are drawn from patent US8198273B2, “Compounds and methods for kinase modulation, and indications therefor” (Plexxikon Inc., priority 2009, dated 2012).
